Measured values taken from patent publication US12595275B2, “Fluorine-containing compound and anti-cancer medical use thereof” (ASCENTAWITS PHARMACEUTICALS, LTD., priority 2019, dated 2026).
Where two headings read alike, the source gives them in different places.

Key:
[1] = system: H460 non-small cell lung cancer human tumor cell line; test: In vitro human tumor cell line cytotoxicity (proliferation) assay, H460; format: cell-based; conditions: NCI-H460, H460 cells, 2 hrs compound exposure, wash, additional 70 hrs incubation, AlamarBlue
Method: In vitro human tumor cell line cytotoxicity assays.
In vitro proliferation data on the H460 non-small cell lung cancer human tumor cell line is reported below in the compound table.
(§1) Specifically, exponentially growing cells were seeded at a density of 4×10^3 cells per well in a 96 well plate and incubated at 37° C. in 5% CO2, 95% air and 100% relative humidity for 24 hours prior to addition of test compounds. Compounds were solubilized in 100% DMSO at 200 times the desired final test concentration. At the time of drug addition, compounds were further diluted to 4 times the desired final concentration with complete medium. Aliquots of 50 μl of compound at specified concentrations were added to microtiter wells already containing 150 μl of medium, resulting in the final drug concentration reported. After drug addition, the plates were incubated for an additional 2 hours at 37° C., 5% CO2, 95% air, and 100% relative humidity, then the drug was washed off and fresh medium was added and the plates were incubated for addition 70 hrs at 37° C., 5% CO2, 95% air and 100% relative humidity. At the end of this incubation, the viable cells were quantified using the AlamarBlue assay.

H460 cancer cells = test: H460 proliferation assay in the presence of the specific AKR1C3 enzyme inhibitor TH-3021; format: cell-based, human; conditions: AKR1C3 inhibitor TH-3021 at 3 micromolar, added two hours before compound treatment, read-out: IC50 (nM) obtained when the AKR1C3 inhibitor TH-3021 was added
Method: as §1
Similarly, in order to further verify that the compounds are activated by human AKR1C3 ([…] family 1 member C3), the effect of some of the compounds on the proliferation of H460 cancer cells was tested in the presence of a specific AKR1C3 enzyme inhibitor (at 3 micromolar concentration). The inhibitor-added compound solution was added to the cell culture two hours before the treatment with the compound. The inhibitor used was compound 36, i.e.,
[drawing 17] (TH-3021) in Flanagan et al., Bioorganic and Medicinal Chemistry (2014), pages 962-977.

Row | Structure (SMILES) | IC50 [1] [nM] | IC50 (H460 cancer cells) [nM] | IC50 (H460 cancer cells; Homo sapiens, NCI-H460, 2 h) [nM]
1 | CN(C)C(=O)c1ccc(Oc2cc(COc3c(F)cc(COP(=O)(N4CC4)N4CC4)cc3F)ccc2[N+](=O)[O-])cc1 [Compound No. 1] | 1.97 | 460 | 
2 | CN(C)C(=O)c1ccc(Oc2cc(COc3c(F)c(F)c(COP(=O)(N4CC4)N4CC4)c(F)c3F)ccc2[N+](=O)[O-])cc1 [Compound No. 2] | 0.352 | > 1000 | 
3 | CN(C)C(=O)c1cccc(Oc2cc(COc3c(F)c(F)c(COP(=O)(N4CC4)N4CC4)c(F)c3F)ccc2[N+](=O)[O-])c1 [Compound No. 3] | 0.417 | > 1000 | 
4 | O=[N+]([O-])c1ccc(COc2c(F)cc(COP(=O)(N3CC3)N3CC3)cc2F)cc1Oc1ccc(C(F)(F)F)cc1 [Compound No. 4] | 9.31 | > 1000 | 
5 | O=[N+]([O-])c1ccc(COc2c(F)cc(COP(=O)(N3CC3)N3CC3)cc2F)cc1Oc1ccc(Cl)nc1 [Compound No. 5] | 5.87 | 228 | 
6 | CN(C)C(=O)c1cccc(Oc2cc(C(OP(=O)(N3CC3)N3CC3)C(F)(F)F)ccc2[N+](=O)[O-])c1 (stereo not shown) [Compound No. 6] | 1.27 | 813 | 
7 | O=[N+]([O-])c1ccc(C(OP(=O)(N2CC2)N2CC2)C(F)(F)F)cc1Oc1ccc(C(F)(F)F)cc1 (stereo not shown) [Compound No. 7] | 25.6 | > 1000 | 
8 | O=[N+]([O-])c1ccc(COc2c(F)c(F)c(COP(=O)(N3CC3)N3CC3)c(F)c2F)cc1Oc1ccc(C(F)(F)F)cc1 [Compound No. 8] | 0.526 | > 1000 | 
9 | O=[N+]([O-])c1ccc(C(OP(=O)(N2CC2)N2CC2)C(F)(F)F)cc1Oc1ccc(-c2ccc(F)cc2)cc1 (stereo not shown) [Compound No. 9] | 18.4 | > 1000 | 
10 | O=[N+]([O-])c1ccc(C(OP(=O)(N2CC2)N2CC2)C(F)(F)F)cc1Oc1ccc(OC(F)(F)F)cc1 (stereo not shown) [Compound No. 11] | 137 | > 1000 | 
11 | O=[N+]([O-])c1ccc(C(OP(=O)(N2CC2)N2CC2)C(F)(F)F)cc1Oc1ccc(F)c(C(F)(F)F)c1 (stereo not shown) [Compound No. 12] | 87.3 | > 1000 | 
12 | O=[N+]([O-])c1ccc(C(OP(=O)(N2CC2)N2CC2)C(F)(F)F)cc1Oc1cnc2ccccc2c1 (stereo not shown) [Compound No. 13] | 42.2 | > 1000 | 
13 | O=[N+]([O-])c1ccc(C(OP(=O)(N2CC2)N2CC2)C(F)(F)F)cc1Oc1cccc(-c2ccc(F)cc2)c1 (stereo not shown) [Compound No. 14] | 30 | > 1000 | 
14 | O=[N+]([O-])c1ccc(C(OP(=O)(N2CC2)N2CC2)C(F)(F)F)cc1Oc1ccc(-c2ccc(F)cc2F)cc1 (stereo not shown) [Compound No. 15] | 11.4 |  | > 1000
15 | O=[N+]([O-])c1ccc(C(OP(=O)(N2CC2)N2CC2)C(F)(F)F)cc1Oc1ccc(-c2ccc(F)cc2)c(F)c1 (stereo not shown) [Compound No. 16] | 6.78 | > 1000 | 
16 | O=[N+]([O-])c1ccc(C(OP(=O)(N2CC2)N2CC2)C(F)(F)F)cc1Oc1ccc(-c2ccc(F)cc2F)c(F)c1 (stereo not shown) [Compound No. 17] | 7.26 | > 1000 | 
17 | O=[N+]([O-])c1ccc(C(OP(=O)(N2CC2)N2CC2)C(F)(F)F)cc1Oc1ccc(-c2ccc(F)cc2)nc1 (stereo not shown) [Compound No. 18] | 35.5 | > 1000 | 
18 | O=[N+]([O-])c1ccc(C(OP(=O)(N2CC2)N2CC2)C(F)(F)F)cc1Oc1ccc(-c2ccc(C(F)(F)F)cc2)nc1 (stereo not shown) [Compound No. 19] | 313 | > 1000 | 
19 | O=[N+]([O-])c1ccc(C(OP(=O)(N2CC2)N2CC2)C(F)(F)F)cc1Oc1ccc(-c2ccc(F)cn2)cc1 (stereo not shown) [Compound No. 20] | 46.8 | > 1000 | 
20 | O=C(c1cccc(Oc2cc(C(OP(=O)(N3CC3)N3CC3)C(F)(F)F)ccc2[N+](=O)[O-])c1)N1CCCCC1 (stereo not shown) [Compound No. 21] | 6.98 | 176 | 
21 | O=C(c1cccc(Oc2cc(C(OP(=O)(N3CC3)N3CC3)C(F)(F)F)ccc2[N+](=O)[O-])c1)N1CCC(F)(F)CC1 (stereo not shown) [Compound No. 22] | 1.37 | 139 | 

Row | Structure (SMILES) | IC50 [1] [nM] | IC50 (H460 cancer cells) [nM] | IC50 (H460 cancer cells; Homo sapiens, NCI-H460, 2 h) [nM]
22 | O=C(c1cccc(Oc2cc(C(OP(=O)(N3CC3)N3CC3)C(F)(F)F)ccc2[N+](=O)[O-])c1)N1CCCC1 (stereo not shown) [Compound No. 23] | 6.04 | 795 | 
23 | CC1(C)CCN(C(=O)c2cccc(Oc3cc(C(OP(=O)(N4CC4)N4CC4)C(F)(F)F)ccc3[N+](=O)[O-])c2)CC1 (stereo not shown) [Compound No. 24] | 4.33 | > 1000 | 
24 | O=C(c1cccc(Oc2cc(C(OP(=O)(N3CC3)N3CC3)C(F)(F)F)ccc2[N+](=O)[O-])c1)N1CCC(C(F)(F)F)CC1 (stereo not shown) [Compound No. 25] | 1.86 | 179 | 
25 | O=C(c1cccc(Oc2cc(C(OP(=O)(N3CC3)N3CC3)C(F)(F)F)ccc2[N+](=O)[O-])c1)N1CCC(O)CC1 (stereo not shown) [Compound No. 26] | 1.2 | 175 | 
26 | CN(C)C(=O)c1ccc(Oc2cc(C(OP(=O)(N3CC3)N3CC3)C(F)(F)F)ccc2[N+](=O)[O-])cc1 (stereo not shown) [Compound No. 27] | 9.32 | > 1000 | 
27 | O=C(c1ccc(Oc2cc(C(OP(=O)(N3CC3)N3CC3)C(F)(F)F)ccc2[N+](=O)[O-])cc1)N1CCCCC1 (stereo not shown) [Compound No. 28] | 2.36 | 649 | 
28 | O=C(c1ccc(Oc2cc(C(OP(=O)(N3CC3)N3CC3)C(F)(F)F)ccc2[N+](=O)[O-])cc1)N1CCC(C(F)(F)F)CC1 (stereo not shown) [Compound No. 29] | 60.1 | > 1000 | 
29 | O=C(c1ccc(Oc2cc(C(OP(=O)(N3CC3)N3CC3)C(F)(F)F)ccc2[N+](=O)[O-])cc1)N1CCC(c2ccccc2)CC1 (stereo not shown) [Compound No. 30] | 79.9 | > 1000 | 
30 | CN(C)C(=O)c1ccc(Oc2cc(COc3cc(F)c(COP(=O)(N4CC4)N4CC4)cc3Cl)ccc2[N+](=O)[O-])cc1 [Compound No. 34] | 38.5 | > 1000 | 
31 | O=C(c1cccc(Oc2cc(COc3c(F)cc(COP(=O)(N4CC4)N4CC4)cc3F)ccc2[N+](=O)[O-])c1)N1CC(F)C1 [Compound No. 36] | < 4.37 | 238 | 
32 | N#Cc1ccc(Oc2cc(COc3c(F)cc(COP(=O)(N4CC4)N4CC4)cc3F)ccc2[N+](=O)[O-])cc1 [Compound No. 37] | 12.3 | 136 | 
33 | O=C(c1cccc(Oc2cc(COc3c(F)cc(COP(=O)(N4CC4)N4CC4)cc3F)ccc2[N+](=O)[O-])c1)N1CC(F)(F)C1 [Compound No. 38] | 5.53 | 267 | 
34 | N#Cc1cccc(Oc2cc(COc3c(F)cc(COP(=O)(N4CC4)N4CC4)cc3F)ccc2[N+](=O)[O-])c1 [Compound No. 39] | 7.79 | 137 | 
35 | O=[N+]([O-])c1ccc(C(OP(=O)(N2CC2)N2CC2)C(F)(F)F)cc1Oc1ccc2ncccc2c1 (stereo not shown) [Compound No. 40] | 14.7 | > 1000 | 
36 | CN(C(=O)c1ccc(Oc2cc(C(OP(=O)(N3CC3)N3CC3)C(F)(F)F)ccc2[N+](=O)[O-])cc1)c1ccccc1 (stereo not shown) [Compound No. 41] | 2.54 | 341 | 
37 | Cc1nc2ccc(Oc3cc(C(OP(=O)(N4CC4)N4CC4)C(F)(F)F)ccc3[N+](=O)[O-])cc2s1 (stereo not shown) [Compound No. 42] | 29.3 | > 1000 | 
38 | Cn1ncc2cc(Oc3cc(C(OP(=O)(N4CC4)N4CC4)C(F)(F)F)ccc3[N+](=O)[O-])ccc21 (stereo not shown) [Compound No. 43] | 30.4 | 102 | 
39 | O=[N+]([O-])c1ccc(C(OP(=O)(N2CC2)N2CC2)C(F)(F)F)cc1Oc1ccc(-c2ccccc2)cc1 (stereo not shown) [Compound No. 44] | 9.42 | > 1000 | 
40 | O=[N+]([O-])c1ccc(C(OP(=O)(N2CC2)N2CC2)C(F)(F)F)cc1Oc1ccc(C2CCCC2)cc1 (stereo not shown) [Compound No. 47] | 8.13 |  | 
41 | O=[N+]([O-])c1ccc(C(OP(=O)(N2CC2)N2CC2)C(F)(F)F)cc1Oc1ccc(C2CCCCC2)cc1 (stereo not shown) [Compound No. 48] | 3.7 |  | 
42 | O=[N+]([O-])c1ccc(C(OP(=O)(N2CC2)N2CC2)C(F)(F)F)cc1Oc1ccc(C2CCC(F)(F)CC2)cc1 (stereo not shown) [Compound No. 49] | 9.61 | > 1000 | 
